For one test, the system named is naïve WT C57BL/6 mice. In words: Hypoferremia in naïve mice. Type of test: in vivo, mouse. Particulars: Mus musculus, po, 3 h, relative to vehicle, read-out: Serum Iron Reduction at 3 h (%); for inhibition in vivo at 10 mg/kg: Dose 10 mg/kg p.o.; for inhibition in vivo at 30 mg/kg: Dose 30 mg/kg p.o.; for inhibition in vivo at 100 mg/kg: Dose 100 mg/kg p.o. The method, then: Injection of synthetic hepcidin in wild-type (WT) naïve mice results in a reduction of serum iron levels (40-50% from the vehicle control) with a maximal effect at 3-4 hours post treatment (Rivera, 2005; FIG. 12A).
Female C57BL/6 mice (Janvier, France) at age of 9 weeks are fed a standard diet (Harlan Provimi Kliba 3436) and treated per os (p.o.) with compounds or the corresponding amount of vehicle at a volume of 10 ml/kg body weight. Fpn inhibitors are formulated in 0.5% methylcellulose/water or 20% cremophor EL/water and dosed p.o. in mice at 10, 30 or 100 mg/kg body weight. Three hours later, mice are pre-terminally anesthetized in isoflurane chambers and blood is collected by retro-orbital bleeding. Mice are sacrificed by cervical dislocation and spleens, livers and duodena were harvested and used for biomarker analysis. All experiments are conducted in compliance with the license approved by the responsible veterinarian authorities. Serum is isolated by centrifugation of blood into gel-containing microtainers and serum iron is determined by the MULTIGENT Iron assay (Abbott Diagnostics, 6K95). Eight mice per group are used and one-way ANOVA with Bonferroni's multiple comparison test is performed to analyze the statistical differences between the experimental groups.
Table 6 Efficacy of Fpn inhibitors tested in the naïve mouse hypoferremia model. Serum iron reduction induced by selected ferroportin inhibitors dosed p.o. in naïve WT C57BL/6 mice at 10, 30 and 100 mg/kg. Relative serum iron reduction at 3 h after dosing was calculated by subtracting the average of serum iron values of animals dosed with the Fpn inhibitor from that of vehicle-treated animals. The difference in average serum iron values between vehicle and compound treated groups was then divided by the average of serum iron of the vehicle control group and listed as percentage.

A further test relates to anemic Wistar rats. Briefly: Prevention of iron absorption in anemic rats. Type of test: in vivo, rat. The following applies: n=5. The method, then:
To assess the in vivo efficacy of ferroportin (Fpn) inhibitors to block iron absorption, a series of Fpn inhibitors is tested in an anemic rat model for iron absorption. Wistar rats (3-4 weeks old, n=5, Janvier Labs) are fed a low iron diet (Provimi-Kliba, Cat. 2039) until their hemoglobin (Hb) values reach 7-8 g/dl one day before dosing of the Fpn inhibitor compounds. One hour before oral application of 0.5 mg/kg of ferrous sulfate, test compounds formulated in methyl cellulose or Cremophor are dosed orally. Blood samples are taken by tail vein puncture one hour before administration of iron (−1 h), immediately after dosing of the Fpn inhibitors (0 h) and one hour (1 h), three hours (3 h) and occasionally up to 6 hours (6 h) after dosing of the test compounds. Serum iron levels are measured (Abbott Diagnostics, Cat. 6K95) and inhibition of the rise of serum iron three hours after dosing of the test compound is calculated as a measure for efficacy of the Fpn inhibitors in blocking iron absorption (Table 7).

Marks after values point to notes of the source that are not given here.

As to `O=C(NCc1ncccc1F)c1cnc(CCNCCc2nc3ccccc3[nH]2)o1` [Example Compound No. 1], in the test on naïve WT C57BL/6 mice, the inhibition in vivo at 10 mg/kg came to 0%, the inhibition in vivo at 30 mg/kg was determined as 28% and the inhibition in vivo at 100 mg/kg is 51%. In the test with anemic Wistar rats (Dose 3 mg/kg oral), the “Serum Iron Inhibition (%) at 3 h” value amounted to 2.1%. Moreover, the “Serum Iron Inhibition (%) at 3 h” value with anemic Wistar rats (Dose 10 mg/kg oral) is listed as 42.6** %. In the test with anemic Wistar rats (Dose 30 mg/kg oral), the “Serum Iron Inhibition (%) at 3 h” value was 64.9*** %.

For `O=C(NCc1ncccc1F)c1csc(CCNCc2nc3ccccc3[nH]2)n1` [Example Compound No. 40], in the test on naïve WT C57BL/6 mice, the inhibition in vivo at 10 mg/kg was determined as 10%, the inhibition in vivo at 30 mg/kg is 30% and the inhibition in vivo at 100 mg/kg was found to be 50%. The “Serum Iron Inhibition (%) at 3 h” value in the test with anemic Wistar rats (Dose 10 mg/kg oral) is reported as 32** %. In addition, in the test with anemic Wistar rats (Dose 30 mg/kg oral), the “Serum Iron Inhibition (%) at 3 h” value is on record as 53*** %. The “Serum Iron Inhibition (%) at 3 h” value in the test on anemic Wistar rats (Dose 100 mg/kg oral) is 97*** %.

In the case of `O=C(NCc1ncccc1F)c1cnc(C2CN(CCc3nc4ccccc4[nH]3)C2)o1` [Example Compound No. 2], in the test with naïve WT C57BL/6 mice, the inhibition in vivo at 10 mg/kg is 9%, the inhibition in vivo at 30 mg/kg was 26% and the inhibition in vivo at 100 mg/kg was found to be 50%. Also, the “Serum Iron Inhibition (%) at 3 h” value in the test with anemic Wistar rats (Dose 3 mg/kg oral) is −3%. Moreover, the “Serum Iron Inhibition (%) at 3 h” value in the test with anemic Wistar rats (Dose 10 mg/kg oral) was 29** %. In addition, in the test with anemic Wistar rats (Dose 30 mg/kg oral), the “Serum Iron Inhibition (%) at 3 h” value is 57*** %.
